Source: patent US7598245B2 (Vertex Pharmaceuticals Incorporated, priority 2003, dated 2009)

These molecules were tested against T1, PDK-1 (Homo sapiens, UniProt O15530) (assay: PDK-1 inhibition, radioactive-phosphate incorporation assay). Conditions: 40 μM ATP.
T1 sequence (O15530 1-556): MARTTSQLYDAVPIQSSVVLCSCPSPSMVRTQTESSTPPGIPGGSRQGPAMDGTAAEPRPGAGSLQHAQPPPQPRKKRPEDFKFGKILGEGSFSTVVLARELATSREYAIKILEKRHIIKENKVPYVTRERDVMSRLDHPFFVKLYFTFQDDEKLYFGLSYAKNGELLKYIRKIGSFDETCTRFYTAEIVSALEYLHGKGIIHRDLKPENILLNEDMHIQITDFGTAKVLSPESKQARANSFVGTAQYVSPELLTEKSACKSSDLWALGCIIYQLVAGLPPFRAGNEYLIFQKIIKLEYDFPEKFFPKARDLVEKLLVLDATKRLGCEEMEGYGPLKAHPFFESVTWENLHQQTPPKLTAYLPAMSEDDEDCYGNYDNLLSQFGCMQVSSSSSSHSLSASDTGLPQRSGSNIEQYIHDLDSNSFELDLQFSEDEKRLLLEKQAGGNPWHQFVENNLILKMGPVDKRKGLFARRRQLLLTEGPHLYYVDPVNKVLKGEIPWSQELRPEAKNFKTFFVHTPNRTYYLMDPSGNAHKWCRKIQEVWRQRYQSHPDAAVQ
Type: biochemical
Description: Compounds were screened for their ability to inhibit PDK-1 using a radioactive-phosphate incorporation assay (Pitt and Lee, J. Biomol. Screen., (1996) 1, 47). Assays were carried out in a mixture of 100 mM HEPES (pH 7.5), 10 mM MgCl2, 25 mM NaCl, 2 mM DTT. Final substrate concentrations in the assay were 40 μM ATP (Sigma Chemicals) and 65 μM peptide (PDKtide, Upstate, Lake Placid, N.Y.). Assays were carried out at 30° C. and 25 nM PDK-1 in the presence of ˜27.5 nCi/μL of [γ-^32P]ATP (Amersham Pharmacia Biotech, Amersham, UK). An assay stock buffer solution was prepared containing all of the reagents listed above, with the exception of ATP, and the test compound of interest. 15 μl of the stock solution was placed in a 96 well plate followed by addition of 1 μl of 0.5 mM DMSO stock containing the test compound (final compound concentration 25 μM, final DMSO concentration […]). The plate was preincubated for about 10 minutes at 30° C. and the reaction initiated by addition of 4 μl ATP (final concentration 40 μM).
The reaction was stopped after 10 minutes by the addition of 100 μL 100 mM phosphoric acid, 0.01% Tween-20. A phosphocellulose 96 well plate (Millipore, Cat no. MAPHNOB50) was pretreated with 100 μL 100 mM phosphoric acid, 0.01% Tween-20 prior to the addition of the reaction mixture (100 μL). The spots were left to soak for at least 5 minutes, prior to wash steps (4×200 μL 100 mM phosphoric acid, 0.01% Tween-20). After drying, 20 μL Optiphase ‘SuperMix’ liquid scintillation cocktail (Perkin Elmer) was added to the well prior to scintillation counting (1450 Microbeta Liquid Scintillation Counter, Wallac).
In the case of `CC(=O)N1[C@H](C)CN(c2cc(-n3cnc(Nc4ccccc4)n3)ccn2)C[C@@H]1C` [Compound I-74], the Ki is reported as < 1000 nM. `c1ccc(-n2cnc(Nc3ccc(N4CCOCC4)nc3)n2)cc1` [Compound I-134] gave a Ki of 1000 to 10000 nM. Work on `OC[C@H]1CCCN(c2cc(-n3cnc(Nc4ccccc4)n3)ccn2)C1` [Compound I-65] yielded a Ki of 1000 to 10000 nM. With `COc1cc(Nc2ncn(-c3ccccc3)n2)cc(OC)c1OC` [Compound I-42] the Ki was 1000 to 10000 nM.
